Test results published in patent publication US8389562B2, “Polymorphic forms of a 3-pyrrole substituted 2-indolinone” (Medichem, S.A., priority 2007, dated 2013).

Key:
[1] = European Public Assessment Report provided for SUTENT; cited from earlier work
[2] = solubility profile of sunitinib base as observed by applicants; assay type: physicochemical; details: sunitinib base obtained in the prior art (Form III); qualitative observation
Text: In this regard, the low solubility of sunitinib base Form III would involve the use of large amounts of suitable solvents or mixture of solvents and/or the use of particular conditions aimed to improve the solubility of sunitinib base Form III and/or long reaction times for processes using sunitinib, which may represent an important drawback, especially for processes on an industrial scale.

CCN(CC)CCNC(=O)c1c(C)[nH]c(/C=C2\C(=O)Nc3ccc(F)cc32)c1C [sunitinib, N-[2-(diethylamino)ethyl]-5-[(Z)-(5-fluoro-1,2-dihydro-2-oxo-3H-indol-3-ylidine)methyl]-2,4-dimethyl-1H-pyrrole-3-carboxamide]
solubility class according to the biopharmaceutical classification [1]: low solubility compound

CCN(CC)CCNC(=O)c1c(C)[nH]c(/C=C2\C(=O)Nc3ccc(F)cc32)c1C [sunitinib base Form III, N-[2-(diethylamino)ethyl]-5-[(Z)-(5-fluoro-1,2-dihydro-2-oxo-3H-indol-3-ylidine)methyl]-2,4-dimethyl-1H-pyrrole-3-carboxamide]
solubility profile [2]: low solubility profile
